Consider 2 molecules from patent US11224223B2, “Feeding deterrence of pests such as Hemiptera, Lepidoptera and Coleoptera” (BEDOUKIAN RESEARCH, INC., priority 2012, dated 2022).

Holding throughout (format): in vivo
For series [1], the system named is Plodia interpunctella. Description: Feeding repellent assay for Indian meal moth larva on treated rice. Particulars: 10% compound in a 5% Ethanol:95% water solution, third instar larvae, 1 week. The method, then:
Feeding Repellent Assay for Indian Meal Moth Larva One gram of rice is weighed and treated with 2% by weight of each test chemical or ethanol as a control for each treatment and replicate. The grains are allowed to dry and then weighed again. Treated or control rice grains are placed in a petri dish. Third instar larvae are starved for 8 h and gently introduced into the center of each compartment. 20 larva are screened per treatment, and each experiment is repeated three times. The weight of rice grains is measured again after 1 week. The selective antifeeding rate (%) formula is [(C−T)/(C+T)]×100, and the non-selective antifeeding rate (%) formula is [(C−T)/C)]×100, where C and T are the areas consumed by the control and treated leaf disks, respectively.

Series [2] deals with Tineola spp. Description: Clothes moth feeding damage on silk fabric, choice test. Particulars: 3% compound; silk disks; late instar larvae; 24 hours; control 50/50. As to the method: For feeding assays, 3% alcohol solutions of the tested compounds are prepared. Disks (2.0 cm in diameter) of undyed silk fabric are dipped in the test solutions or alcohol alone as a control. After the complete evaporation of the solvent, the disks are presented in a choice test to 10 late instar Tineola spp. larvae. All dishes are placed in an incubator in the dark. Four replicates are used for each chemical. After 24 hours, the number of individuals choosing to feed on each disk are counted.

Series [3] relates to Codling Moth larvae. The series can be described thus: Repellency as feeding deterrence and mortality in Codling Moth larvae on treated media. Particulars: compound at 3.5% in a 57% Ethanol:43% water solution; for Repellency at 24 hours: first instar larva, control 8%. As to the method: Another test was designed to measure the repellency as feeding deterrence in Codling Moth larvae. The treatment was applied to the surface of a proprietary laboratory media in a tray with wells for each compound. The media was allowed to dry for 30-60 minutes so that larvae were not exposed to it as a liquid. One first instar codling moth larva was then placed on the treated media. The cover film was placed on the tray to prevent escapes. Ten additional replicates treated with a 57% ethanol solution were prepared to serve as controls. […] After the 24 hour reading, the larvae were extracted from the media to record any mortality.
Mortality observations were also made for the above protocol. The control was the 57% ethanol:43% water solution.

The test system of series [4] is psyllids. The series can be described thus: Psyllid repellency on potato choice assays. Particulars: 3% compound; potato plants; 100 psyllids per cage; control 50/50. The text has this:
Psyllid Repellency on Potato Choice Assays
Potato plants are sprayed with either a 3% solution of repellent chemical in a 5%:95% ETOH:Water or only 5%:95% ETOH:Water as a control. Two plants are placed in a screen cage, either a treatment vs control tree or a control vs control tree, 100 psyllids are released into each cage. The number of psyllids choosing each leaf is counted for both choice tests. The number of psyllids choosing each treatment is compared to the control to determine if there is a repellent effect.

For series [5], the system named is Aphis gossypii. The series can be described thus: Melon aphid repellency on leaf choice assays. Particulars: 3% compound in a Triton X:Water solution; n=100; control 50/50. From the text: Melon Aphid Repellency on Leaf Choice Assays Aphis gossypii are maintained on squash plants. Individual aphids (n=100) are given the choice between leaves with and without repellent treatments. A separate group of aphids are given a choice between untreated vs. untreated leaves as a control. The number of aphids choosing each leaf is counted both choice tests. The number of aphids choosing each treatment is compared to the control to determine the repellent effect.

Series [6] relates to granary weevils. The series can be described thus: Granary weevil test on treated wheat kernels. Particulars: 5% in isopropyl alcohol, 3 week period. The method, then: Ten replicates of 30 kernels of wheat were immersed into the test compound and allowed to dry for 24 hours. The grains were then transferred to a test container, and 10 granary weevils were released. Test containers were secured and left for a 3 week period. At the end of this time, the wheat grains were examined for developing larvae and damage by larvae. […] Ten additional replicates treated with isopropyl alcohol were prepared to serve as controls.

Series [7] concerns Dermestid spp. The series can be described thus: Dermestid beetle feeding damage on silk fabric. The conditions noted are these: 3% compound; undyed silk disks; late instar larvae; 1 week. The method, then: Dermestid Beetle Feeding Damage on Silk Fabric
For feeding assays, 3% alcohol solutions of the tested compounds are prepared. Disks (4.0 cm in diameter) of undyed silk fabric are dipped in the test solutions or alcohol alone as a control. After the complete evaporation of the solvent, the disks are offered to 10 late instar larvae. All dishes are placed in an incubator. Four replicates are used for each chemical. After 1 week, the remaining uneaten area of each silk disk is measured using a scanner and software. The selective antifeeding rate (%) formula is [(C−T)/(C+T)]×100, and the non-selective antifeeding rate (%) formula is [(C−T)/C)]×100, where C and T are the areas consumed by the control and treated silk disks, respectively.

Series [8] concerns Euschistus heros-Neotropical Brown Stink Bugs. Description: Stink bug feeding damage on soybean pods. Particulars: 3% compound, soybean plants at R6 stage, 48 hours. The method, then: To compare the feeding/resting preference of stink bug adults for different plant parts, 10 pots with soybean plants at the R6 (pod-filling) stage of development are used. 5 pots of soybeans are sprayed with 3% of treatment in a 2% Triton X:water solution and 5 pots of soybean are treated with 2% Triton X:water solution as controls. Thirty stink bugs are placed individually in each cage and allowed to feed for 48 hours. Insects are removed and plant parts are collected for visual analysis of damage. Feeding damage on the pods is counted for both treatments. The selective antifeeding rate (%) formula is [(C−T)/(C+T)]×100, and the non-selective antifeeding rate (%) formula is [(C−T)/C)]×100, where C and T are the numbers of feeding damages on the control and treated plant pods, respectively.

Series [9] concerns Leptinotarsa decemlineata-Colorado Potatoe Beetles. The series can be described thus: Choice feeding assay on potato leaf disks. Particulars: 3% compound, larvae, 24 h. The method, then:
For choice feeding assays, 3% alcohol solutions of the tested compounds are prepared. Disks (4.0 cm in diameter) are cut from potato leaves and are dipped in the test solutions or alcohol alone as a control. After the complete evaporation of the solvent, the disks are offered to 10 larvae. Control and treated disks are placed at alternate corners in Petri dishes (150 by 20 mm) lined with moistened filter paper (choice test). All dishes are placed in an incubator. Four replicates and 40 larva are used for each chemical. In each replicate, the insects are allowed to feed ad libitum for 24 h at 24 C under a 16:8 (L:D) photoperiod. After 24 h, the remaining uneaten area of each potato leaf disk is measured using a scanner and software. The selective antifeeding rate (%) formula is [(C−T)/(C+T)]×100, and the non-selective antifeeding rate (%) formula is [(C−T)/C)]×100, where C and T are the areas consumed by the control and treated leaf disks, respectively.

For the molecule `CC/C(C)=C/CC/C(C)=C/CC1CCCC1=O` (centres unmarked) [Methyl Apritone], the “% Antifeedent Activity” value in series [1] was 70%. Moreover, in [2], the “Individuals choosing to feed on each disk: Treated” value is reported as 20 and the “Individuals choosing to feed on each disk: Untreated” value is reported as 80. Besides, in series [3], the “Increased Mortality over Control Mortality at 24 hours” value is recorded as 95% and the “Repellency at 24 hours” value turned out to be 100%. Also, in series [4], the “Number of Psyllids Choosing each Treatment: Treated” value is 30 and the “Number of Psyllids Choosing each Treatment: Untreated” value was determined as 70. Besides, in series [5], the “Number of Aphids Choosing each Treatment: Treated” value turned out to be 30 and the “Number of Aphids Choosing each Treatment: Untreated” value stood at 70. Moreover, the “Increased Repellency vs. Control Repellency” value in series [6] was found to be 11%. In addition, the “% Repellency” value in series [7] was 15%. Moreover, the “% Antifeedent Activity” value in series [8] is listed as 60%. In addition, the “% Repellency” value in series [9] came to 15%.

`CCCCCC1C(=O)CCC1CC(=O)OCCC` (centres unmarked) [Propyl Dihydrojasmonate]: the “% Antifeedent Activity” value in [1] is 60%. Further, in series [2], the “Individuals choosing to feed on each disk: Treated” value is recorded as 20 and the “Individuals choosing to feed on each disk: Untreated” value was 80. Moreover, in series [3], the “Increased Mortality over Control Mortality at 24 hours” value is recorded as 18% and the “Repellency at 24 hours” value is listed as 59%. Also, in series [4], the “Number of Psyllids Choosing each Treatment: Treated” value is recorded as 30 and the “Number of Psyllids Choosing each Treatment: Untreated” value amounted to 70. Besides, in series [5], the “Number of Aphids Choosing each Treatment: Treated” value is on record as 30 and the “Number of Aphids Choosing each Treatment: Untreated” value came out at 70. In [6], the “Increased Repellency vs. Control Repellency” value amounted to 8%. Further, the “% Repellency” value in series [7] is listed as 15%. Further, the “% Antifeedent Activity” value in [8] was 100%. Also, the “% Repellency” value in [9] stood at 15%.
